Active and inactive are the calls of the source.
Key:
[1] = target: T1, Voltage-gated inwardly rectifying potassium channel KCNH2 (Homo sapiens, UniProt Q12809); conditions: Potency;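 also: confirmatory quantitative high-throughput screen measuring inhibition of hERG channel activity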
[2] = target: Luciferin 4-monooxygenase (Photinus pyralis, UniProt P08659); assay: firefly luciferase enzyme inhibitors, dose response, biochemical, luminescence (AID 1891)
[3] = Luminescence Cell-Based Dose Confirmation HTS to Identify Inhibitors of Platelet Dense Granule Release. [Related pubchem assays: 1663 (Primary HTS), 1678 (Summary of Project)]; assay type: functional
Cytochrome P450 2C19 = Cytochrome P450 2C19 (Homo sapiens, UniProt P33261); assay: Cytochrome panel assay with activity outcomes. Panel member name: p450-cyp2c19 Compounds with AC50 equal or less than 10 uM are considered active; assay type: functional; conditions: read-out: AC50
fMet-Leu-Phe receptor = fMet-Leu-Phe receptor (Homo sapiens, UniProt P21462); assay: FPR ligands, dose response (AID 519); assay type: functional
Cytochrome P450 2D6 = Cytochrome P450 2D6 (Homo sapiens, UniProt P10635);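 also: CYP2D6 member of a cytochrome P450 panel assay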
[4] = target: T2, Delta-type opioid receptor (Homo sapiens, UniProt P41143); assay: HTS Image-Based Screen for Antagonists of the DOR Receptor. [Related pubchem assays (depositor defined):AID1777, AID1785, AID1786, AID2133]; assay type: functional
Mu-type opioid receptor = Mu-type opioid receptor (Homo sapiens, UniProt P35372); assay: HTS Image-Based Screen for Agonists of the MOR Receptor. [Related pubchem assays (depositor defined):AID1777, AID1785, AID1786, AID2133]; assay type: functional;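 also: imaging of beta-arrestin GFP recruitment into spots after receptor activation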
[5] = target: E3 ubiquitin-protein ligase Mdm2 (Homo sapiens, UniProt Q00987); assay: enhancers of MDM2-luciferase reporter signal, concentration-effect titration, project on inhibitors of MDM2 ubiquitin ligase, cellular assay, luminescent readout, 384-well plate format (AID 1394); assay type: functional;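 also: MDM2 E3 inhibitors raise luminescence so EC50 is for signal enhancement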
[6] = system: Streptococcus sp. 'group A'; assay: growth inhibition of control SK(-) GAS strain, dose response, counter-screen for streptokinase expression inhibitor project, luminescence, kanamycin, BacTiterGlo, confirmation (AID 1900); assay type: functional, organism-based
[7] = target: T2, Delta-type opioid receptor; assay: HTS Image-Based Screen for Agonists of the DOR Receptor. [Related pubchem assays (depositor defined):AID1777, AID1786, AID2133]; assay type: functional
[8] = target: T3, Kappa-type opioid receptor (Homo sapiens, UniProt P41145); assay type: functional
[9] = target: T1, Voltage-gated inwardly rectifying potassium channel KCNH2; assay: hERG protection from proarrhythmic block, potency, dose response, cell-based, thallium flux (AID 2121); assay type: ADME
Beta-galactosidase = Beta-galactosidase (Escherichia coli, UniProt Q8VNN2); assay type: functional
[10] = target: T3, Kappa-type opioid receptor; assay type: functional; remark: listed apart in the source
[11] = target: Induced myeloid leukemia cell differentiation protein Mcl-1 (Homo sapiens, UniProt Q07820); assay type: functional
Streptococcus = assay: Group A Streptococcus viability loss, dose response, counter-screen for streptokinase expression inhibitor project, luminescence, BacTiterGlo (AID 1915); assay type: functional, organism-based; conditions: read-out: EC50;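 also: potency for reduction of bacterial viability or growth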
[12] = target: T4, Heat shock factor protein 1 (Mus musculus, UniProt P38532); assay: HSF1 potentiators in luciferase reporter cells, confirmation, cell-based, NIH3T3, luminescence, dose retest (AID 435004); assay type: functional;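 also: stress induced by proteasome inhibitor MG132 added 30 min after compound; luciferase reporter driven by HSF1 response element in NIH3T3 cells; actives raise luminescence as potentiators of the MG132 stress response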
T4 sequence (P38532 whole entry): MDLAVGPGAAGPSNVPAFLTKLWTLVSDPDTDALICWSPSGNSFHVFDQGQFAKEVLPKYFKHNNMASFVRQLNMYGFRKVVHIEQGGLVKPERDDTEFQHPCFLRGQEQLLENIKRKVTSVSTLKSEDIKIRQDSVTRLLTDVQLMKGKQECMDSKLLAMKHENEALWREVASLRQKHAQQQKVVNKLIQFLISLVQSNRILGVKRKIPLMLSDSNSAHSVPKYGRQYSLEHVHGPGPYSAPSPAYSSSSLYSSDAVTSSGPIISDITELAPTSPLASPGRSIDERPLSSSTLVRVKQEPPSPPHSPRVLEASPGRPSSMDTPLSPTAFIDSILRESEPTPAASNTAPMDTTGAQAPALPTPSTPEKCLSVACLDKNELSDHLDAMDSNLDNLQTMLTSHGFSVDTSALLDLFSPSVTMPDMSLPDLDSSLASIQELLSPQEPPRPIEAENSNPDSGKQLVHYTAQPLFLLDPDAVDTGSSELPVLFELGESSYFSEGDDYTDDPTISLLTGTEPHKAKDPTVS

Vero = assay: cells; assay type: functional; conditions: Chlorocebus sabaeus
[13] = Shn3 3'UTR reporter inhibitors, dose response, cell-based, Clone20 osteoblasts, firefly luciferase, cherry-picked (AID 624132); assay type: functional;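 also: firefly luciferase luminescence from reporter carrying the Shn3 3'UTR in osteoblasts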
[14] = HepG2 cell cytotoxicity, dose response, cytotoxicity control for Shn3 inhibitor project, CellTiter-Glo, cherry-picked (AID 624134); assay type: functional, cell-based
[15] = control 3'UTR Renilla luciferase suppression, dose response, counter-screen for Shn3 inhibitor project, cell-based, Clone20-Shn3RL, cherry-picked (AID 624133); assay type: functional
[16] = Luminescence Cell-Based Dose Retest to Confirm Inhibitors of Cancer Stem Cells. [Related pubchem assays (depositor defined):AID2717, AID2721]; assay type: functional; conditions: Homo sapiens
[17] = cytotoxicity in HMLE control line with eGFP shRNA, dose response, counter-screen for HMLE_sh_ECad selective toxicity project, cell-based, HMLE_sh_eGFP, luminescence (AID 463074); assay type: functional, Homo sapiens;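 also: HMLE human mammary epithelial cells expressing control shRNA against eGFP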
[18] = target: Dual specificity protein kinase CLK1 (Homo sapiens, UniProt P49759); assay: CLK1 kinase inhibitors, off-target check, dose response, selectivity assay for Dyrk1A inhibitor project, biochemical, cherry-picked samples (AID 588811)
[19] = target: T5, Mannose-6-phosphate isomerase (Homo sapiens, UniProt P34949); assay: PMI enzyme inhibitors, confirmation, biochemical, fluorescence intensity (AID 1535)
T5 sequence (P34949 whole entry): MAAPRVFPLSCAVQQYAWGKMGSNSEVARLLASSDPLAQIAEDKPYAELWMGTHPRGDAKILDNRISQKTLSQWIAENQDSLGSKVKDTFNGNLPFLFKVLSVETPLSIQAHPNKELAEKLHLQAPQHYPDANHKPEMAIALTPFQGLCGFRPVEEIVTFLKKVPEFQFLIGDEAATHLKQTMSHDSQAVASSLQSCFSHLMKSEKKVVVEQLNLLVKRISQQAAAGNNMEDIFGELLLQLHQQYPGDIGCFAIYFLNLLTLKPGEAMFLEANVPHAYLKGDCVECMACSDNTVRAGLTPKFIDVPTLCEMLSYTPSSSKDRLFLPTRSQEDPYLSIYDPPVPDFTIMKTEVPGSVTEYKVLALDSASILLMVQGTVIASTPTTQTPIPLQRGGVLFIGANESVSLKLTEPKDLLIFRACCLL

Phosphomannomutase 2 = Phosphomannomutase 2 (Homo sapiens, UniProt O15305); assay: Counter screen SAR assay for PMM2 inhibitors via a fluorescence intensity assay. [Related pubchem assays (depositor defined):AID1545, AID1574]
[20] = target: Potassium voltage-gated channel subfamily KQT member 2 (Rattus norvegicus, UniProt O88943); assay: KCNQ2 channel activators, analog series, SAR follow-up, automated patch clamp, KCNQ2-CHO cells (AID 493113); assay type: functional
[21] = target: Dual specificity protein phosphatase 3 (Homo sapiens, UniProt P51452); assay: SAR VHR1 Fluorescent Assay for In Vitro dose response studies Set 3. [Related pubchem assays (depositor defined):AID1654, AID1661, AID1878]; assay type: functional
INS1 = assay: protection of INS-1E cells from cytokine death, dose response, ATP luminescence, dry powder (AID 488844); assay type: functional, cell-based; conditions: Rattus norvegicus
[22] = target: T6, Short transient receptor potential channel 4 (Mus musculus, UniProt Q9QUQ5); assay: SAR Analysis for the identification of selective inhibits of the transient receptor potential cation channel C4 (TRPC4): Automated Electrophysiology. [Related pubchem assays (depositor defined):AID2256]; assay type: functional
T6 sequence (Q9QUQ5 whole entry): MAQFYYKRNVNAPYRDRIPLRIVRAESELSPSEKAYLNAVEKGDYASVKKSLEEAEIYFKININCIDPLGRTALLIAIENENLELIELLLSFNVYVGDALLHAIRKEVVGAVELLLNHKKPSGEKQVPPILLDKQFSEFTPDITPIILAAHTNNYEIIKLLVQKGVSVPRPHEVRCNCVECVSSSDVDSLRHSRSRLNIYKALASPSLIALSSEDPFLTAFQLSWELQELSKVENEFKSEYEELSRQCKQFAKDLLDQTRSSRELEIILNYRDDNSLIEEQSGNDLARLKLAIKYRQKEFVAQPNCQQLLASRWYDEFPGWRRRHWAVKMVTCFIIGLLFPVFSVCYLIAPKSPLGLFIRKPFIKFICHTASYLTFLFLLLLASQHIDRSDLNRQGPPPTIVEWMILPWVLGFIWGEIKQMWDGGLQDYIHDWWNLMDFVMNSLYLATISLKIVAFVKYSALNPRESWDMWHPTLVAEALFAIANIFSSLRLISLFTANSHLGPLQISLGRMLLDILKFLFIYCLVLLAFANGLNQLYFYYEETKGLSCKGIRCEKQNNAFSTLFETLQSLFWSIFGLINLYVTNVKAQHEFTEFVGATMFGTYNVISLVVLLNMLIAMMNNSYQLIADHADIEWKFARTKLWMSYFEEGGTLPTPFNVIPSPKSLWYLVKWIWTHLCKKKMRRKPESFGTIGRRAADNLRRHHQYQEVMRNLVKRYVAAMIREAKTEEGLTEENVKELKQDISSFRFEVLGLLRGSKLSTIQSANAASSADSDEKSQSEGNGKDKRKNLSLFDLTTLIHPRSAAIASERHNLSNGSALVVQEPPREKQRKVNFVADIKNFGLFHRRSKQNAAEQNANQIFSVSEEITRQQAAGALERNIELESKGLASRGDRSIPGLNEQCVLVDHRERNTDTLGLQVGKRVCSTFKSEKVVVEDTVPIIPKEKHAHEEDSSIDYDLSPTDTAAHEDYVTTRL

[23] = target: T6, Short transient receptor potential channel 4; assay: TRPC4 inhibition under acetylcholine activation, SAR follow-up, cell-based, acetylcholine stimulus, HEK293 TRPC4, Fluo-4 (AID 492996); assay type: functional
[24] = target: Short transient receptor potential channel 6 (Mus musculus, UniProt Q61143); assay: TRPC6 inhibition potency of TRPC4 inhibitor analogs, dose response, selectivity assay for selective TRPC4 inhibitor project, HEK293 cells, membrane potential dye, IC50 (AID 492987); assay type: functional, cell-based
[25] = target: T6, Short transient receptor potential channel 4; assay: TRPC4 inhibitor concentration-response, dose response, cell-based, HEK293 TRPC4/mu-opioid, DAMGO stimulus, Fluo-4 (AID 492994); assay type: functional

T1 sequence (Q12809 whole entry): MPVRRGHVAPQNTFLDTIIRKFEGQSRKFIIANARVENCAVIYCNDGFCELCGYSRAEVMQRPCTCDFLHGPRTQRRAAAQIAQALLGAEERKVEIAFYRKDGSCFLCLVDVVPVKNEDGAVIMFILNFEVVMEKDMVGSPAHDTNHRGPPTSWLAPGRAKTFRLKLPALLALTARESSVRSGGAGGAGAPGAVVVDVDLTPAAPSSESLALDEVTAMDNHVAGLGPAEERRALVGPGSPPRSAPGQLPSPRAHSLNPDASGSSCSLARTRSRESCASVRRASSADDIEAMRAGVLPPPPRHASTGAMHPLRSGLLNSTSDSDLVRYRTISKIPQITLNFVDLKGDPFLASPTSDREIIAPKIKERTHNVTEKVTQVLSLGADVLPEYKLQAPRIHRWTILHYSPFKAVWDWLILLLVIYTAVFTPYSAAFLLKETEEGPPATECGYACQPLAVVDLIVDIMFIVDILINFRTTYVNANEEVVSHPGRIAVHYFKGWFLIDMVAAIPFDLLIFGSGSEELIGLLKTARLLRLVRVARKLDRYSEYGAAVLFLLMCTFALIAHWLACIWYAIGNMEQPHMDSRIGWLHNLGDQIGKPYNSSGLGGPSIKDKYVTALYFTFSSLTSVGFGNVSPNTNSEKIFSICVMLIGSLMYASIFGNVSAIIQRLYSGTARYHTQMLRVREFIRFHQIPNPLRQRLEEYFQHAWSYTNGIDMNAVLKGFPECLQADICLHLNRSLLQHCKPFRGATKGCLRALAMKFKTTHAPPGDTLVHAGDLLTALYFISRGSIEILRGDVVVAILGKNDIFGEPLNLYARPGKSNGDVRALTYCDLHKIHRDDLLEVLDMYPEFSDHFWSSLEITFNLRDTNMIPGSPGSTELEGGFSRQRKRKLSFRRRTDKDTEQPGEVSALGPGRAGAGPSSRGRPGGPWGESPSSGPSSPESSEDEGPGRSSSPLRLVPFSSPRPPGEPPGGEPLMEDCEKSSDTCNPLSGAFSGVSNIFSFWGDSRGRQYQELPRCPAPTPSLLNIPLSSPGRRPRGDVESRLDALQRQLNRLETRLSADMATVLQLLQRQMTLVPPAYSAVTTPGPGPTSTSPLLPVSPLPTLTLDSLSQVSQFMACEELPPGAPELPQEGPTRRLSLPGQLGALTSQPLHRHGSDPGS
T2 sequence (P41143 whole entry): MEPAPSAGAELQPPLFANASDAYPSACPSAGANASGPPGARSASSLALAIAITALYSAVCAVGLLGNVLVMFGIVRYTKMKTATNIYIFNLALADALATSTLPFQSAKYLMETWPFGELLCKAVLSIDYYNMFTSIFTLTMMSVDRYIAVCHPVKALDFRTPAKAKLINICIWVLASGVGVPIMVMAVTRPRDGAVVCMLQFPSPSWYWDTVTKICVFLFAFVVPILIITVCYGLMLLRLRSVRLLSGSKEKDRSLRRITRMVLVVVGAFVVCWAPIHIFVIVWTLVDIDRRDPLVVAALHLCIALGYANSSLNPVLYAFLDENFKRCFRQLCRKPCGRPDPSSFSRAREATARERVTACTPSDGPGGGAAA
T3 sequence (P41145 whole entry): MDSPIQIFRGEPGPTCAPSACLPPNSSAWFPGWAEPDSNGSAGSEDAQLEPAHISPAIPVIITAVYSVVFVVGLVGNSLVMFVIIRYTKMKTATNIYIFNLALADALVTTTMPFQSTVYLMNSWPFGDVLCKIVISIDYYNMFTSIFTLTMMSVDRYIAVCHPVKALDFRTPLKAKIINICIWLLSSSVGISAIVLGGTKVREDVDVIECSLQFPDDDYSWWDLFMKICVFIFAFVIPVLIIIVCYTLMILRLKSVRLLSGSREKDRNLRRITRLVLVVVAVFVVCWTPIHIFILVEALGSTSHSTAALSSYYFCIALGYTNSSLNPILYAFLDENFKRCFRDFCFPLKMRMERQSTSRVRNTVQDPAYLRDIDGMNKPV
Phosphomannomutase 2, sequence (O15305 whole entry): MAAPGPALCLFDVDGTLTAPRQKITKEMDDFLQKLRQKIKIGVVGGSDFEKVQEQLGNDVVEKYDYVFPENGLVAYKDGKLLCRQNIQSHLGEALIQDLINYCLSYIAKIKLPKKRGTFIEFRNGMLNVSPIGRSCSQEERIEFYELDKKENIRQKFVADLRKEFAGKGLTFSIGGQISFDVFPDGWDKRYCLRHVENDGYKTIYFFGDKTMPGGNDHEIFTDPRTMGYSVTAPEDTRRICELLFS
Cytochrome P450 2C19, sequence (P33261 whole entry): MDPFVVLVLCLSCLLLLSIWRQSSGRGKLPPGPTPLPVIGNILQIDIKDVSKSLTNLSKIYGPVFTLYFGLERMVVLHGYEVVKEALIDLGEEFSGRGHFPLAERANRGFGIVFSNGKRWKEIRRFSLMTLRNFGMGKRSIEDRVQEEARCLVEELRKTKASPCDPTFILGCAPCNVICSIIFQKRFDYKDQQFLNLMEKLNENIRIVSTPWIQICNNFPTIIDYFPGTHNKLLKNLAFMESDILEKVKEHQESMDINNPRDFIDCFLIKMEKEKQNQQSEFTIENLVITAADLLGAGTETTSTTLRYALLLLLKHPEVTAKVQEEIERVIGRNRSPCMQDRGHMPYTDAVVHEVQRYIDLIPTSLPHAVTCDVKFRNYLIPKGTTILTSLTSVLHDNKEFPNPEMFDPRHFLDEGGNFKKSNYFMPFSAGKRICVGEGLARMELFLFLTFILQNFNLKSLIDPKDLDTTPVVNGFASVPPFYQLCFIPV
Short transient receptor potential channel 6, sequence (Q61143 whole entry): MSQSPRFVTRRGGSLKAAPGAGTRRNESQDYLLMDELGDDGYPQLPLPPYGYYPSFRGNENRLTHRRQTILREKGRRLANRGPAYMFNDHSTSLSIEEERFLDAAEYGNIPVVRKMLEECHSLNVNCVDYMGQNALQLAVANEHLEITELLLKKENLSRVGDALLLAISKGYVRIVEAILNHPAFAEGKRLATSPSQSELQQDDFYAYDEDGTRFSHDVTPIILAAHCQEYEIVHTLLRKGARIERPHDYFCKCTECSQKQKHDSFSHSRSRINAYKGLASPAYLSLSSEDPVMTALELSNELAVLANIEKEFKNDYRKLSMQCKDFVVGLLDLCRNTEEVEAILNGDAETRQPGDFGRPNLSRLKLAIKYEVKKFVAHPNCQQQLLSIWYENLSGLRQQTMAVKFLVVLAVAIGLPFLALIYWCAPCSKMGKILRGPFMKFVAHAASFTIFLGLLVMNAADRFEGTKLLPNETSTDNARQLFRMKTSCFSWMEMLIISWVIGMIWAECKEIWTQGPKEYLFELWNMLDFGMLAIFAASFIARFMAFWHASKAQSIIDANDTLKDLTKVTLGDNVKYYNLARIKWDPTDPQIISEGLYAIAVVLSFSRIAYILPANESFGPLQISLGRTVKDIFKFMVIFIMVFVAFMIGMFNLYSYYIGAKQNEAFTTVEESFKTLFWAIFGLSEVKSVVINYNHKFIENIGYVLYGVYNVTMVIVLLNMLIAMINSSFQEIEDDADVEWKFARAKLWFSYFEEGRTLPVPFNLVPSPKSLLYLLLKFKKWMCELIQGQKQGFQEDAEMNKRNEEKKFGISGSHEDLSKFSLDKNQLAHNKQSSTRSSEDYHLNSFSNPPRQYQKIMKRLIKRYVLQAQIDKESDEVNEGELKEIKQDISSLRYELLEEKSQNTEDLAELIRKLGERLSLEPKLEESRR
E3 ubiquitin-protein ligase Mdm2, sequence (Q00987 whole entry): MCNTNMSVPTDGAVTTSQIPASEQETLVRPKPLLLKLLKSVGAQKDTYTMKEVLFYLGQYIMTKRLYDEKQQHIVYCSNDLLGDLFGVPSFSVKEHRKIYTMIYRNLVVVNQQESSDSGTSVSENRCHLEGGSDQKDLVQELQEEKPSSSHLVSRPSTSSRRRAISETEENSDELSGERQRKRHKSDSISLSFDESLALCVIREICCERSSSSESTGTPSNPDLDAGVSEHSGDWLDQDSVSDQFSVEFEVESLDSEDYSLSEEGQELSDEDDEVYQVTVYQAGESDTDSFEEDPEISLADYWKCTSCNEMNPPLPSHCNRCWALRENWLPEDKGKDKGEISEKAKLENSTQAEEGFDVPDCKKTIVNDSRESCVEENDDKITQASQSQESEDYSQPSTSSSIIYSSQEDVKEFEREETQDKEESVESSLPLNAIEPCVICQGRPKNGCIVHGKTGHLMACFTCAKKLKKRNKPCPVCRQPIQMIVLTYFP
Cytochrome P450 2D6, sequence (P10635 whole entry): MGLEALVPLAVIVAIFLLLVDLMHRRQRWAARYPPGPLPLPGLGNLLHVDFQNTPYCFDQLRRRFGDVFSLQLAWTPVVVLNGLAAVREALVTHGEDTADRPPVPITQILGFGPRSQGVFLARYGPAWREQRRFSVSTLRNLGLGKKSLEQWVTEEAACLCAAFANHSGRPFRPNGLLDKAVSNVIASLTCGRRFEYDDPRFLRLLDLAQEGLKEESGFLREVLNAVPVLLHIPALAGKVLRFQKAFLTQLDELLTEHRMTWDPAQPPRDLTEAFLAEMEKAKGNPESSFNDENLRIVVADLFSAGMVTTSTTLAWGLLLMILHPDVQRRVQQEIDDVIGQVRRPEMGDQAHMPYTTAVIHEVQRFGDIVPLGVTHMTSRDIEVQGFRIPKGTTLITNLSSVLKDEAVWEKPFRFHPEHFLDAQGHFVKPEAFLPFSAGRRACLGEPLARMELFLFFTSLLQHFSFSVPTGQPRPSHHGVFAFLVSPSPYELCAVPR
fMet-Leu-Phe receptor, sequence (P21462 whole entry): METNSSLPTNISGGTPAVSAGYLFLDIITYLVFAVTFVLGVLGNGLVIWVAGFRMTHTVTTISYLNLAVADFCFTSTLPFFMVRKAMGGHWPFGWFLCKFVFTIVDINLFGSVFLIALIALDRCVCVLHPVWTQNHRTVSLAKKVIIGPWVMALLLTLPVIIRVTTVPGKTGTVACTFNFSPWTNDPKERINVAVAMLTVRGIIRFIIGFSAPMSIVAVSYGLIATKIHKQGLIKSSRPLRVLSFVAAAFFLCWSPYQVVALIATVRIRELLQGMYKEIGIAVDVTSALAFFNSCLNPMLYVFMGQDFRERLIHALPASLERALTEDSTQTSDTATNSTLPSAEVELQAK

O=C(Cc1ccc(Cl)c(Cl)c1)N1CCCCC1CN1CCCC1 (centres undefined)
AC50 [1]: 25.1 µM (inconclusive)

Cc1ccc(C2C(C(=O)c3sc(C)nc3C)=C(O)C(=O)N2CCN2CCOCC2)o1 (centres undefined)
EC50 [2]: > 112 µM (not active) | EC50 [3]: > 112 µM (not active) | AC50 (Cytochrome P450 2C19): 5.62 nM (inconclusive) | Ki (fMet-Leu-Phe receptor): > 66.7 µM (inactive) | AC50 (Cytochrome P450 2D6): inconclusive

N=C1S/C(=C\c2ccc(-c3cccc(Cl)c3)o2)C(=O)N1c1nccs1
IC50 [4]: > 32 µM (inactive) | EC50 (Mu-type opioid receptor): > 32 µM (inactive) | EC50 [5]: 10 nM (not active) | EC50 [6]: < 60 nM (active) | EC50 [7]: > 32 µM (inactive) | IC50 [8]: 5.72 µM (active) | EC50 [9]: 420 nM (active) | EC50 (Beta-galactosidase): > 31.5 µM (inactive) | IC50 [10]: > 32 µM | IC50 [11]: 745 nM (active) | EC50 (Streptococcus): 228 nM (active) | EC50 [12]: 5.39 µM (active) | CC50 (Vero): 4.5 µM (active) | AC50 [13]: 2.82 µM (active) | AC50 [14]: 13.7 µM (active) | AC50 [15]: 6.17 µM (active)

Cc1ccc(OCC(=O)NNC(=S)NC(=O)c2cccs2)c(C)c1
AC50 [16]: 9.13 µM (active) | AC50 [17]: 37.8 µM (active)

CN(Cc1cccs1)c1ncnc2ccc(-c3ccc4c(c3)OCO4)cc12
AC50 [18]: < 1.95 nM (active)

Clc1nss/c1=N\c1ccccc1Br
IC50 [19]: 11.9 µM (active) | IC50 (Phosphomannomutase 2): 57.3 µM (active)

O=C(Nc1ccc(Cl)cc1Cl)C1CC2CCC1C2 (centres undefined)
EC50 [20]: 1.52 µM (active)

CC(C)(C)c1ccc(C(=O)NCc2nnc(SCC(=O)Nc3nc4ccccc4s3)n2-c2cccc(Cl)c2)cc1
IC50 [21]: > 66 µM (inactive)

COc1ccc(S(=O)(=O)N(C)C[C@@H]2Oc3c(NS(=O)(=O)c4ccc(Cl)cc4)cccc3C(=O)N([C@@H](C)CO)C[C@H]2C)cc1
AC50 (INS1): > 260 µM (inactive)

Cc1cc(N2CCC[C@@H]2C)nc2ccccc12
IC50 [22]: 4.26 µM (active) | IC50 [23]: 17.1 µM (active) | IC50 [24]: 11.8 µM (active) | IC50 [25]: 2.5 µM (active)
